Square brackets hold non-standard residues; d marks the D form. Peptide text beside a SMILES is read from it. * marks the point of attachment. ξ: configuration not given here. Cbz = O=C(OCc1ccccc1)*; Boc = CC(C)(C)OC(=O)*; ξV = CC(C)C(N)C(=O)O; CF3 = FC(F)(F)*; Sar = CNCC(=O)O
Key:
[1] = tested on: Cricetinae gen. sp.; assay: Compound was evaluated for inhibition of Elastase-induced Pulmonary hemorrhage (EPH) in hamsters at the dose of 20 micro/mL); type: functional; parameters: unit not given here
[2] = molecular target: T1, Neutrophil elastase (Homo sapiens, UniProt P08246); assay: In vitro inhibitory activity against human leukocyte elastase
T1 sequence (P08246 whole entry): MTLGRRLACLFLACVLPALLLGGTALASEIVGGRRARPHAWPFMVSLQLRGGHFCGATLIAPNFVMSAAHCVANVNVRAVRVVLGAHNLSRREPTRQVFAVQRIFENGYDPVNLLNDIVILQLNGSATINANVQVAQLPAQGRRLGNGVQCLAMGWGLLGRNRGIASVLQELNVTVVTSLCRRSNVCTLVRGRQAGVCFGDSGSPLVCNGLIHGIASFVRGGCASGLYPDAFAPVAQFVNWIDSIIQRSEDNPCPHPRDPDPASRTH

[3] = tested on: Cricetinae gen. sp.; assay: Compound was evaluated for inhibition of Elastase-induced Pulmonary hemorrhage (EPH) in hamsters at the dose of 10 micro/mL); type: functional
[4] = tested on: Cricetinae gen. sp.; assay: Compound was evaluated for inhibition of Elastase-induced Pulmonary hemorrhage (EPH) in hamsters at the dose of 3 micro/mL); type: functional
[5] = tested on: Cricetinae gen. sp.; assay: Compound was evaluated for inhibition of Elastase-induced Pulmonary hemorrhage (EPH) in hamsters at the dose of 30 micro/mL); type: functional
[6] = tested on: Cricetinae gen. sp.; assay: Compound was evaluated for inhibition of Elastase-induced Pulmonary hemorrhage (EPH) in hamsters at the dose of 1 micro/mL); type: functional
[7] = tested on: Cricetinae gen. sp.; assay: Compound was evaluated for inhibition of Elastase-induced Pulmonary hemorrhage (EPH) in hamsters at the dose of 100 micro/mL); type: functional

IC50 [2] | SMILES | also measured
> 5000 nM | CC(C)[C@H](NC(=O)c1ccc(C(=O)NS(=O)(=O)c2ccc(Cl)cc2)cc1)C(=O)N(CC(=O)NC(Cc1ccccc1)C(=O)C(F)(F)F)C1Cc2ccccc2C1 (stereo partly drawn) | Max hemorrhage [1]: 43.8
149 nM | CC(C)C(NC(=O)CN(C(=O)[C@@H](NC(=O)c1ccc(C(=O)NS(=O)(=O)c2ccc(Br)cc2)cc1)C(C)C)C1Cc2ccccc2C1)C(=O)C(F)(F)F (stereo partly drawn) | 
 | CC(C)C(NC(=O)CN(C(=O)[C@@H](NC(=O)c1ccc(C(=O)NS(=O)(=O)c2ccc(Cl)cc2)cc1)C(C)C)C1CC2CCC1C2)C(=O)C(F)(F)F (stereo partly drawn) | Max hemorrhage [1]: 93.8
67 nM | CC(C)C(NC(=O)CN(C(=O)[C@@H](NC(=O)c1ccc(C(=O)NS(=O)(=O)c2ccc(Cl)cc2)cc1)C(C)C)C1CCCCCCC1)C(=O)C(F)(F)F (stereo partly drawn) | Inhibition of elastase-induced pulmonary hemorrhage [3]: 96.7
> 5000 nM | CC(C)C(NC(=O)CN(C(=O)OCc1ccccc1)C1Cc2ccccc2C1)C(=O)C(F)(F)F (stereo not drawn) | 
 | CC(C)C(NC(=O)CN(C(=O)[C@@H](NC(=O)c1ccc(C(=O)NS(=O)(=O)c2ccc(Cl)cc2)cc1)C(C)C)C1Cc2ccccc2C1)C(=O)C(F)(F)F (stereo partly drawn) | Max hemorrhage [4]: 58.1; Max hemorrhage [5]: 99.3; Inhibition of elastase-induced pulmonary hemorrhage [3]: 90.5
30 nM | CC(C)C(NC(=O)CN(CC1CCCO1)C(=O)[C@@H](NC(=O)c1ccc(C(=O)NS(=O)(=O)c2ccc(Cl)cc2)cc1)C(C)C)C(=O)C(F)(F)F (stereo partly drawn) | 
> 5000 nM | CC(C)[C@H](NC(=O)c1ccc(C(=O)NS(=O)(=O)c2ccc(Cl)cc2)cc1)C(=O)N(CC(=O)NC(C)(C)C(=O)C(F)(F)F)C1Cc2ccccc2C1 | 
57 nM | CCOC(=O)N1CCC(N(CC(=O)NC(C(=O)C(F)(F)F)C(C)C)C(=O)[C@@H](NC(=O)c2ccc(C(=O)NS(=O)(=O)c3ccc(Cl)cc3)cc2)C(C)C)CC1 (stereo partly drawn) | Max hemorrhage [1]: 98.4
 | CC(C)C(NC(=O)CN(C(=O)[C@@H](NC(=O)OCc1ccccc1)C(C)C)C1Cc2ccccc2C1)C(=O)C(F)(F)F (stereo partly drawn) | Max hemorrhage [1]: 24.2
507 nM | CCOC(=O)N1CCC(N(CC(=O)NC(C(=O)C(F)(F)F)C(C)C)C(=O)[C@@H](NC(=O)OCc2ccccc2)C(C)C)CC1 (stereo partly drawn) | 
 | CC(C)C(NC(=O)c1ccc(C(=O)NS(=O)(=O)c2ccc(Br)cc2)cc1)C(=O)N1CCC[C@H]1C(=O)N[C@H](C(=O)C(F)(F)F)C(C)C (stereo partly drawn) | Max hemorrhage [6]: 33.3; Max hemorrhage [4]: 79.4; Inhibition of elastase-induced pulmonary hemorrhage [3]: 98.5
233 nM | CC(C)C(NC(=O)C1Cc2ccccc2CN1C(=O)[C@@H](NC(=O)OCc1ccccc1)C(C)C)C(=O)C(F)(F)F (stereo in doubt; 20y) | 
 | CC(C)C(NC(=O)C1Cc2ccccc2CN1C(=O)[C@@H](NC(=O)c1ccc(C(=O)NS(=O)(=O)c2ccc(Cl)cc2)cc1)C(C)C)C(=O)C(F)(F)F (stereo partly drawn) | Max hemorrhage [1]: 88.4
65 nM | CC(C)C(NC(=O)C1CCCN1C(=O)[C@@H](NC(=O)OC(C)(C)C)C(C)C)C(=O)C(F)(F)F (stereo partly drawn) | 
> 5000 nM | CC(C)[C@H](NC(=O)OCc1ccccc1)C(=O)N(CC(=O)NCC(=O)C(F)(F)F)C1Cc2ccccc2C1 | 
> 5000 nM | CC(C)[C@H](NC(=O)CN(C(=O)[C@@H](NC(=O)OCc1ccccc1)C(C)C)C1Cc2ccccc2C1)C(=O)c1ccc(C(F)(F)F)cc1 | 

IC50 [2] | SMILES | also measured
73 nM | CC(C)C(NC(=O)C1Cc2ccccc2CN1C(=O)[C@@H](NC(=O)OCc1ccccc1)C(C)C)C(=O)C(F)(F)F (stereo in doubt; 20z) | 
452 nM | CCOC(=O)CCC(=O)Nc1nc(/C(=N\OC)C(=O)N[C@H](C(=O)N(CC(=O)NC(C(=O)C(F)(F)F)C(C)C)C2Cc3ccccc3C2)C(C)C)cs1 (stereo partly drawn) | 
138 nM | CC(C)C(NC(=O)CN(Cc1ccco1)C(=O)[C@@H](NC(=O)c1ccc(C(=O)NS(=O)(=O)c2ccc(Cl)cc2)cc1)C(C)C)C(=O)C(F)(F)F (stereo partly drawn) | Inhibition of elastase-induced pulmonary hemorrhage [3]: 96.2
73 nM | CC(C)C(NC(=O)CNC(=O)[C@@H](NC(=O)c1ccc(C(=O)NS(=O)(=O)c2ccc(Cl)cc2)cc1)C(C)C)C(=O)C(F)(F)F (stereo partly drawn) | Max hemorrhage [1]: 85.1
217 nM | CC(C)C(NC(=O)CN(Cc1ccccc1)C(=O)[C@@H](NC(=O)c1ccc(C(=O)NS(=O)(=O)c2ccc(Cl)cc2)cc1)C(C)C)C(=O)C(F)(F)F (stereo partly drawn) | 
52 nM | CC(C)C(NC(=O)CN(C)C(=O)[C@@H](NC(=O)c1ccc(C(=O)NS(=O)(=O)c2ccc(Cl)cc2)cc1)C(C)C)C(=O)C(F)(F)F (stereo partly drawn) | 
175 nM | CC(C)C(NC(=O)CN(C(=O)[C@@H](NC(=O)c1ccc(C(=O)NS(=O)(=O)c2ccc(Cl)cc2)cc1)C(C)C)C1CCCCCC1)C(=O)C(F)(F)F (stereo partly drawn) | Max hemorrhage [1]: 84.3
817 nM | CC(NC(=O)CN(C(=O)[C@@H](NC(=O)c1ccc(C(=O)NS(=O)(=O)c2ccc(Cl)cc2)cc1)C(C)C)C1Cc2ccccc2C1)C(=O)C(F)(F)F (stereo partly drawn) | 
 | CC(=O)OCC1=C(C(=O)OC(C)(C)C)N2C(=O)[C@@H](C(C)=O)C2S(=O)(=O)C1 (stereo partly drawn) | Max hemorrhage [7]: 0
172 nM | CC(C)C(NC(=O)[C@H]1CCCN1C(=O)[C@@H](NC(=O)OC(C)(C)C)C(C)C)C(=O)C(F)(F)F (stereo partly drawn) | 
> 5000 nM | CC(C)C(NCCN(C(=O)[C@@H](NC(=O)OC(C)(C)C)C(C)C)C1Cc2ccccc2C1)C(=O)C(F)(F)F (stereo partly drawn) | 
84 nM | COc1ccc(CCN(CC(=O)NC(C(=O)C(F)(F)F)C(C)C)C(=O)[C@@H](NC(=O)c2ccc(C(=O)NS(=O)(=O)c3ccc(Cl)cc3)cc2)C(C)C)cc1OC (stereo partly drawn) | 
5000 nM | CC(C)C(NCCN(C(=O)[C@@H](NC(=O)c1ccc(C(=O)NS(=O)(=O)c2ccc(Cl)cc2)cc1)C(C)C)C1Cc2ccccc2C1)C(=O)C(F)(F)F (stereo partly drawn) | Inhibition of elastase-induced pulmonary hemorrhage [3]: 2.7
153 nM | CC(C)C(NC(=O)CNC(=O)[C@@H](NC(=O)OC(C)(C)C)C(C)C)C(=O)C(F)(F)F (stereo partly drawn) (Boc-Val-Gly-[ξV]-CF3) | 
5100 nM | CC(C)[C@H](NC(=O)CN(C(=O)[C@@H](NC(=O)c1ccc(C(=O)NS(=O)(=O)c2ccc(Cl)cc2)cc1)C(C)C)C1Cc2ccccc2C1)C(=O)c1ccc(C(F)(F)F)cc1 | Inhibition of elastase-induced pulmonary hemorrhage [3]: 7.7
> 5000 nM | CC(C)C(NC(=O)OCc1ccccc1)C(=O)C(F)(F)F (stereo not drawn) | 
153 nM | CC(C)C(NC(=O)CN(C)C(=O)[C@@H](NC(=O)OCc1ccccc1)C(C)C)C(=O)C(F)(F)F (stereo partly drawn) (Cbz-Val-[Sar]-[ξV]-CF3) | 

SMILES | IC50 [2] | also measured
CC(C)C(NC(=O)CN(C(=O)[C@@H](NC(=O)c1ccc(C(=O)NS(=O)(=O)c2ccc(Cl)cc2)cc1)C(C)C)C1CCCC1)C(=O)C(F)(F)F (stereo partly drawn) | 92 nM | Max hemorrhage [1]: 99.2

Reference: ChEMBL document CHEMBL1125371, “Inhibition of human leukocyte elastase (HLE) by N-substituted peptidyl trifluoromethyl ketones” (J Med Chem, 1992)
